Data reported in US8916212B2, “Skin whitening composition containing chia seed extract” (Access Business Group International LLC, priority 2011, dated 2014).

Columns and labels:
[1] = system: Melan-a murine melanocytes; assay: Melanin inhibition assay; type: cell-based; conditions: melan-a cells; for reduction in melanin content: 100 μg/ml in 0.36% pentylene glycol:0.036% DMSO, FIG. 3
Method: (§1) Melan-a murine melanocytes (Wellcome Trust Functional Genomics Cell Bank, St. George Hospital, London, UK) were plated one day prior to treatment in 24 well plates at a density of 5×10^4 cells per well in 1 ml of melan-a cell medium (RPMI-1640, 10% Fetal Bovine Serum (FBS), 1% Penicillin/Streptomycin, 100 μM β-mercaptoethanol, 2 mM L-Glutamine and 200 nM Phorbol 12-myristate 13-acetate) in a 10% CO2 incubator maintained at 37° C. After seeding the cells for 24 hours in triplicate, cells were treated as indicated below. After two days of treatment, the culture media was changed and fresh samples were added and incubated overnight. The cells were initially tested for cell viability and cytoxicity using the WST-1 assay (Roche Applied Science). Following the WST-1 assay, the cells were washed in IX PBS and harvested in extraction buffer for melanin isolation and quantification.
Cells from each well of the 24 well plate were harvested in cell lysis buffer (1% Triton X 100, 50 mM Tris, 2 mM EDTA, 150 mM NaCl, pH 7.5 supplemented with a complete protease inhibitor cocktail). Cell lysates were centrifuged at 20,000 g for 10 min at 4° C. Protein levels in the supernatant were quantified using a Pierce BCA Protein assay kit (Thermo Scientific Corp). Melanin-containing precipitates were washed in 100 μl of ethanol:ether (1:1) for 10 min at room temperature. The ethanol:ether solution was discarded and the melanin-pellets were dissolved in 200 μl of 2N NaOH in 20% DMSO solution and incubated at 70° C. for 60 min. The resulting melanin extract was analyzed by measuring absorbance at 490 nm. The melanin content in each sample was evaluated by normalizing each sample to the total amount of protein.

melan-a cells = assay: WST-1 assay for cell viability and cytotoxicity; type: cell-based, murine; conditions: at the concentrations tested
Method: as §1

Structure (SMILES) | reduction of melanin content ([1]; positive control, FIG. 4 experiment) [%] | reduction in melanin content [1] | cytotoxicity to melan-a cells (WST-1) (melan-a cells)
NC(=S)Nc1ccccc1 [phenylthiourea] | 70 |  | 
CC/C=C\C/C=C\C/C=C\CCCCCCCC(=O)O [α-linolenic acid] |  | comparatively minor reductions | not cytotoxic
CCCCC/C=C\C/C=C\CCCCCCCC(=O)O [linoleic acid] |  | comparatively minor reductions | not cytotoxic
